Assay results from ChEMBL document CHEMBL2010743, “Adamantyl N-benzylbenzamide: new series of depigmentation agents with tyrosinase inhibitory activity” (Bioorg Med Chem Lett, 2012).

Legend:
Tyrosinase = molecular target: T1, Tyrosinase (Agaricus bisporus, UniProt O42713); assay: Inhibition of mushroom tyrosinase
T1 sequence (O42713 whole entry): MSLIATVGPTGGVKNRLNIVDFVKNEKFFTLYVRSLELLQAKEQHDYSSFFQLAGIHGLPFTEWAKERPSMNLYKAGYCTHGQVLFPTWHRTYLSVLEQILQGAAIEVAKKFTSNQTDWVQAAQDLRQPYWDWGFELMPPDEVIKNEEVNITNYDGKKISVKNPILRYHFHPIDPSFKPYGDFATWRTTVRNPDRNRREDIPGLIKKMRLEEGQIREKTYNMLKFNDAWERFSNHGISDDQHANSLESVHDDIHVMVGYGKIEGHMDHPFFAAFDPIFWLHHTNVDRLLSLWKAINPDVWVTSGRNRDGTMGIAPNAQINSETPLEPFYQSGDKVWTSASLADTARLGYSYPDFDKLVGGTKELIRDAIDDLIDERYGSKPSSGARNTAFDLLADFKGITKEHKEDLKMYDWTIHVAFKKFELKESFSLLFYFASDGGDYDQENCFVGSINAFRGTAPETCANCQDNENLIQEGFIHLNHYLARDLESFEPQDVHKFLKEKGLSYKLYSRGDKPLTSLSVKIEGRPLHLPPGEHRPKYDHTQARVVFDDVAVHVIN

B16 [1] = assay: Ratio of kojic acid IC50 to compound IC50 for inhibition of melanogenesis in mouse B16 cells; type: functional
B16 [2] = assay: cells; conditions: Mus musculus
in vitro = conditions: mouse, B16 cells
Description: Cytotoxicity in mouse B16 cells assessed as cell viability at 10 uM after 72 hrs

[3] = molecular target: T2, Tyrosinase (Agaricus bisporus) (UniProt O42713); assay: Inhibition of mushroom tyrosinase at 1 uM
T2 sequence (whole entry): T1 sequence (O42713 whole entry)

[4] = molecular target: T2, Tyrosinase (Agaricus bisporus); assay: Ratio of kojic acid IC50 to compound IC50 for mushroom tyrosinase
B16 [5] = assay: Antimelanogenic activity in mouse B16 cells assessed as inhibition of melanogenesis at 1 uM; type: functional
[6] = Cytotoxicity in mouse B16 cells assessed as cell viability at 1 uM after 72 hrs; type: cell-based; conditions: read-out: Activity
B16 [7] = assay: Antimelanogenic activity in mouse B16 cells assessed as inhibition of melanogenesis at 3 uM; type: functional

Row | SMILES | IC50 (Tyrosinase) | IC50 (B16 [2]) | viability at 72 h, 10 µM (in vitro) | further results
1 | COc1cc(OC)c(C23CC4CC(CC(C4)C2)C3)cc1C(=O)NCc1ccc(O)cc1O | 900 nM | 1100 nM | 95% | Ratio IC50 (B16 [1]): 200
2 | O=C(NCc1ccccc1O)c1cc(C23CC4CC(CC(C4)C2)C3)c(O)cc1O |  |  |  | inhibition [3]: < 5%
3 | COc1ccc(CNC(=O)c2cc(C34CC5CC(CC(C5)C3)C4)c(O)cc2O)c(OC)c1 |  |  |  | inhibition [3]: < 5%
4 | COc1ccc(C(=O)NCc2ccc(O)cc2O)c(OC)c1 | 400 nM | 14200 nM | 100% | Ratio IC50 [4]: 30
5 | O=C(NCc1ccc(O)cc1O)c1ccc(O)cc1O | 900 nM | 26700 nM | 100% | Ratio IC50 [4]: 30
6 | CCCCc1ccc(O)cc1O [RUCINOL] |  | 20000 nM |  | 
7 | O=C(NCc1ccc(O)cc1)c1cc(C23CC4CC(CC(C4)C2)C3)c(O)cc1O |  |  |  | inhibition [3]: < 5%

Now from value to compound, other results behind:

Row | IC50 (Tyrosinase) | IC50 (B16 [2]) | SMILES | viability at 72 h, 10 µM (in vitro) | further results
8 | 800 nM | 1800 nM | COc1cc(O)c(C(=O)NCc2ccc(O)cc2O)cc1C12CC3CC(CC(C3)C1)C2 | 100% | Ratio IC50 (B16 [1]): 200
9 | 900 nM |  | O=C(NCc1ccc(O)cc1O)c1ccc(O)c(C23CC4CC(CC(C4)C2)C3)c1 | 41% | inhibition at 1 µM (B16 [5]): < 5%; viability at 72 h, 1 µM [6]: 99%
10 | 300 nM | 27600 nM | COc1ccc(C(=O)NCc2ccc(O)cc2O)c(O)c1 | 96% | Ratio IC50 [4]: 30
11 | 1400 nM |  | COc1ccc(C(=O)NCc2ccc(O)cc2O)cc1C12CC3CC(CC(C3)C1)C2 | 44% | inhibition at 1 µM (B16 [5]): < 5%; viability at 72 h, 1 µM [6]: 100%
12 | 1100 nM |  | O=C(NCc1ccc(O)cc1O)c1cc(C23CC4CC(CC(C4)C2)C3)c(O)cc1O | 62% | inhibition at 1 µM (B16 [5]): < 5%; viability at 72 h, 1 µM [6]: 86%; inhibition at 3 µM (B16 [7]): 90%
